Experiment: Water solubility: appearance and pH of the aqueous mix while acid and polyamine are combined
Assay type: physicochemical
Conditions: TEPA 2.0 g in water 94.0 g, before LAS acid
Source text: As PAAS began forming, the solution became hazy. Upon further addition of the LAS acid, the hazy solution became a dispersion. Upon standing for hours, the dispersion formed a layer of sediment at the bottom of the beaker. Even a very diluted formulation (such as below 0.1%) was hazy. […] The solution was clear at the all time over the entire pH range, leading to the conclusion that Na-LAS was fully ionized or disassociated. […] Example 1 was repeated, except that fatty acid was used in place of LAS acid.

Observations (appearance): Clear
Structure (SMILES): NCCNCCNCCNCCN [TEPA, Tetraethylenepentamine]
